In patent US20240360178A1, “MACROCYCLIC IMMUNOMODULATORS” (Bristol-Myers Squibb Company, priority 2021, published 2024):
Positions of bridges follow the written chain, without caps; N, C: chain ends. Non-standard residues stand in square brackets, D forms with d. Residues, ends and D or L forms follow the SMILES beside them. ξ: configuration not given here. *: point of attachment. Phe(4-COOH) = N[C@@H](Cc1ccc(C(=O)O)cc1)C(=O)O; Bip = N[C@@H](Cc1ccc(-c2ccccc2)cc1)C(=O)O; Phe(3-CN) = N#Cc1cccc(C[C@H](N)C(=O)O)c1; Phe(3-OMe) = COc1cccc(C[C@H](N)C(=O)O)c1; NMeF = CN[C@@H](Cc1ccccc1)C(=O)O; 4Pal = N[C@@H](Cc1ccncc1)C(=O)O; Cha = N[C@@H](CC1CCCCC1)C(=O)O; ξR = N=C(N)NCCCC(N)C(=O)O; Carboxymethyl = O=C(O)C*; NMeA = CN[C@@H](C)C(=O)O; Orn = NCCC[C@H](N)C(=O)O; Dab = NCC[C@H](N)C(=O)O; Sar = CNCC(=O)O

Target: T1, human PD-1 (Jurkat-PD-1 cells) / PE-labeled human PD-L1-Ig (Homo sapiens, UniProt Q15116)
T1 construct: expressed in transfected cells; host or cells: Jurkat cell line over-expressing human PD-1
Assay: Jurkat-PD-1 Cell Binding High-Content Screening Assay (CBA); Jurkat hPD1-PDL1 assay
Conditions: Jurkat cell line over-expressing human PD-1; PE-labeled PD-L1-Ig 20 nM final; compound incubated 2 hours at 37° C.; read-out: Jurkat HPD1-PDL1 IC50
Experimental: The ability of the compounds of formula (I) to bind to PD-1 was investigated using a Jurkat-PD-1 Cell Binding High-Content Screening Assay.
Jurkat-PD-1 Cell Binding High-Content Screening Assay (CBA)
Phycoerythrin (PE) was covalently linked to the Ig epitope tag of human PD-L1-Ig and fluorescently-labeled PD-L1-Ig was used for binding studies with a Jurkat cell line over-expressing human PD-1 (Jurkat-PD-1). Briefly, 8×10^3 Jurkat-hPD-1 cells were seeded into 384 well plates in 20 μL of DMEM supplemented with 10% fetal calf serum. 100 nL of compound was added to cells followed by incubation at 37° C. for 2 hours. Then, 5 μL of PE-labeled PD-L1-Ig (20 nM final), diluted in DMEM supplemented with 10% fetal calf serum. […] Data was collected and processed using a Cell Insight NXT High Content Imager and associated software.

T1 sequence (Q15116 25-288): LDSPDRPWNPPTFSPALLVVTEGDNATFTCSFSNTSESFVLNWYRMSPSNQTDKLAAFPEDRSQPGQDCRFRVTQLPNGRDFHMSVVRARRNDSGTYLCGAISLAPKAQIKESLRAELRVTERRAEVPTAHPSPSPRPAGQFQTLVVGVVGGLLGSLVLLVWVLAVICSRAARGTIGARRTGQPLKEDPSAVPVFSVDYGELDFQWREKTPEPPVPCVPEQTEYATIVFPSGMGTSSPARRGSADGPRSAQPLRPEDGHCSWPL

Question: For CC(C)C[C@@H]1NC(=O)[C@H](CCCCN)NC(=O)[C@H](Cc2ccccc2)N(C)C(=O)[C@H](C)N(C)C(=O)[C@H](CCCNC(=N)N)NC(=O)[C@H](Cc2ccc(-c3ccccc3)cc2)NC(=O)[C@H](C(C)C)NC(=O)[C@H](Cc2c[nH]c3ccccc23)NC(=O)[C@H](CC(=O)O)NC(=O)[C@H](Cc2ccc(O)cc2)NC(=O)[C@H](CC(N)=O)NC(=O)CSC[C@@H](C(=O)N[C@@H](C)C(N)=O)NC(=O)[C@H]([C@@H](C)O)NC(=O)[C@H](C(C)C)NC1=O [Example 1384] ({CH2CO}-NYDWV[Bip]R[NMeA][NMeF]KLVTCA-NH2; thioether N-14), which IC50 is on record?
Answer: 220 nM

Question: How did the IC50 turn out when CC(C)C[C@@H]1NC(=O)[C@H](CC(N)=O)NC(=O)CN(C)C(=O)[C@H](C)N(C)C(=O)[C@H](C(C)C)NC(=O)[C@H](Cc2ccc(-c3ccccc3)cc2)NC(=O)[C@H](Cc2ccc(O)cc2)NC(=O)[C@H](Cc2c[nH]c3ccccc23)NC(=O)[C@H](CC(=O)O)NC(=O)[C@H](Cc2ccc(O)cc2)NC(=O)[C@H](Cc2ccccc2)NC(=O)CSC[C@@H](C(=O)NCC(N)=O)NC(=O)[C@H](CO)NC(=O)[C@H](C(C)C)NC1=O [Example 1224] ({CH2CO}-FYDWY[Bip]V[NMeA][Sar]NLVSCG-NH2; thioether N-14) was run?
Answer: 160 nM

Question: With CC(C)C[C@@H]1NC(=O)[C@H](CCCNC(=N)N)NC(=O)[C@H](Cc2ccccc2)N(C)C(=O)[C@H](C)N(C)C(=O)[C@H](CCCNC(=N)N)NC(=O)[C@H](Cc2ccc(-c3ccccc3)cc2)NC(=O)[C@H]([C@@H](C)O)NC(=O)[C@H](Cc2c[nH]c3ccccc23)NC(=O)[C@H](CC(=O)O)NC(=O)[C@H](Cc2ccc(O)cc2)NC(=O)[C@H](Cc2ccccc2)NC(=O)CSC[C@@H](C(=O)NCC(N)=O)NC(=O)[C@H](CO)NC(=O)[C@H](C(C)C)NC1=O [Example 1283] ({CH2CO}-FYDWT[Bip]R[NMeA][NMeF]RLVSCG-NH2; thioether N-14) as the compound, how does the IC50 read?
Answer: 700 nM

Question: For CC(C)C[C@@H]1NC(=O)C(CCCNC(=N)N)NC(=O)[C@H](Cc2ccccc2)N(C)C(=O)[C@H](C)N(C)C(=O)[C@H](CCCNC(=N)N)NC(=O)[C@H](Cc2ccc(-c3ccccc3)cc2)NC(=O)[C@H](C(C)C)NC(=O)[C@H](Cc2c[nH]c3ccccc23)NC(=O)[C@H](CC(=O)O)NC(=O)[C@H](Cc2ccc(C(=O)O)cc2)NC(=O)[C@H](Cc2ccccc2)NC(=O)CSC[C@@H](C(=O)NCC(N)=O)NC(=O)[C@H](CO)NC(=O)[C@H](C(C)C)NC1=O (stereo partly drawn) [Example 1222] ({CH2CO}-F[Phe(4-COOH)]DWV[Bip]R[NMeA][NMeF][ξR]LVSCG-NH2; thioether N-14), which IC50 is on record?
Answer: 60 nM

Question: For CC(C)C[C@@H]1NC(=O)[C@H](CCCNC(=N)N)NC(=O)[C@H](Cc2ccccc2)N(C)C(=O)[C@H](C)N(C)C(=O)[C@H](CCCNC(=N)N)NC(=O)[C@H](Cc2ccc(-c3ccccc3)cc2)NC(=O)[C@H](C(C)C)NC(=O)[C@H](Cc2c[nH]c3ccccc23)NC(=O)[C@H](CC(=O)O)NC(=O)[C@H](Cc2ccc(O)cc2)NC(=O)[C@H](Cc2ccc(OCC(=O)O)cc2)NC(=O)CSC[C@@H](C(=O)NCC(N)=O)NC(=O)[C@H](CO)NC(=O)[C@H](C(C)C)NC1=O [Example 1246] ({CH2CO}-Y(Carboxymethyl)YDWV[Bip]R[NMeA][NMeF]RLVSCG-NH2; thioether N-14), which IC50 is on record?
Answer: 250 nM

Question: Which IC50 does the source give for CC(C)C[C@@H]1NC(=O)[C@H](Cc2c[nH]c3ccccc23)NC(=O)[C@H](CC(=O)O)NC(=O)[C@H](Cc2cnc[nH]2)NC(=O)[C@H](Cc2ccccc2)NC(=O)CSC[C@@H](C(=O)NCC(N)=O)NC(=O)[C@H](CO)NC(=O)[C@H](C(C)C)NC(=O)[C@H](CC(C)C)NC(=O)[C@H](CC(N)=O)NC(=O)CN(C)C(=O)[C@H](C)N(C)C(=O)[C@H](C(C)C)NC(=O)[C@H](Cc2ccc(-c3ccccc3)cc2)NC1=O [Example 1153] ({CH2CO}-FHDWL[Bip]V[NMeA][Sar]NLVSCG-NH2; thioether N-14) here?
Answer: 760 nM

Question: With CC(C)C[C@@H]1NC(=O)[C@H](Cc2c[nH]c3ccccc23)NC(=O)[C@H](CC(=O)O)NC(=O)[C@H](Cc2ccc(O)cc2)NC(=O)[C@H](Cc2ccccc2)NC(=O)CSC[C@@H](C(=O)N[C@@H](C)C(N)=O)NC(=O)[C@H](CO)NC(=O)[C@H](C(C)C)NC(=O)[C@H](CC(C)C)NC(=O)[C@H](CCCCN)NC(=O)[C@H]2CCCN2C(=O)[C@H](C)N(C)C(=O)[C@H](CCC(=O)O)NC(=O)[C@H](Cc2ccc(-c3ccccc3)cc2)NC1=O [Example 1036] ({CH2CO}-FYDWL[Bip]E[NMeA][dP]KLVSCA-NH2; thioether N-14) as the compound, how does the IC50 read?
Answer: 60 nM

Question: How did the IC50 turn out when CC(C)C[C@@H]1NC(=O)CSC[C@@H](C(=O)NCC(N)=O)NC(=O)[C@H](CO)NC(=O)[C@H](C(C)C)NC(=O)[C@H](CC(C)C)NC(=O)[C@H](CCCNC(=N)N)NC(=O)[C@H](Cc2ccccc2)N(C)C(=O)[C@H](C)N(C)C(=O)[C@H](CCC(=O)O)NC(=O)[C@H](Cc2ccc(-c3ccccc3)cc2)NC(=O)[C@H](C(C)C)NC(=O)[C@H](Cc2c[nH]c3ccccc23)NC(=O)[C@H](CC(=O)O)NC(=O)[C@H](Cc2ccc(O)cc2)NC1=O [Example 1287] ({CH2CO}-LYDWV[Bip]E[NMeA][NMeF]RLVSCG-NH2; thioether N-14) was run?
Answer: 130 nM

Question: How did the IC50 turn out when CC(C)C[C@@H]1NC(=O)[C@H](CCCNC(=N)N)NC(=O)[C@H](Cc2ccccc2)N(C)C(=O)[C@H](C)N(C)C(=O)[C@H](CCCNC(=N)N)NC(=O)[C@H](Cc2ccc(-c3ccccc3)cc2)NC(=O)[C@H](C(C)C)NC(=O)[C@H](Cc2c[nH]c3ccccc23)NC(=O)[C@H](CC(=O)O)NC(=O)[C@H](Cc2ccc(O)cc2)NC(=O)[C@H](CCC(N)=O)NC(=O)CSC[C@@H](C(=O)NCC(N)=O)NC(=O)[C@H](CO)NC(=O)[C@H](C(C)C)NC1=O [Example 1057] ({CH2CO}-QYDWV[Bip]R[NMeA][NMeF]RLVSCG-NH2; thioether N-14) was run?
Answer: 130 nM

Question: With CC(C)C[C@@H]1NC(=O)[C@H](CCCNC(=N)N)NC(=O)[C@H](Cc2ccccc2)N(C)C(=O)[C@H](C)N(C)C(=O)[C@H](CCCNC(=N)N)NC(=O)[C@H](Cc2ccc(-c3ccccc3)cc2)NC(=O)[C@H](C(C)C)NC(=O)[C@H](Cc2c[nH]c3ccccc23)NC(=O)[C@H](CC(=O)O)NC(=O)[C@H](Cc2ccc(O)cc2)NC(=O)[C@H](Cc2ccccc2)NC(=O)CSC[C@@H](C(=O)NCC(N)=O)NC(=O)[C@H](CO)NC(=O)[C@H](C(C)C)NC1=O [Example 1000] ({CH2CO}-FYDWV[Bip]R[NMeA][NMeF]RLVSCG-NH2; thioether N-14) as the compound, how does the IC50 read?
Answer: 260 nM

Question: Which IC50 does the source give for CC(C)C[C@@H]1NC(=O)CSC[C@@H](C(=O)NCC(N)=O)NC(=O)[C@H](CO)NC(=O)[C@H](C(C)C)NC(=O)[C@H](CC(C)C)NC(=O)[C@H](CCN)NC(=O)[C@H](Cc2ccccc2)N(C)C(=O)[C@H](C)N(C)C(=O)[C@H](CCCNC(=N)N)NC(=O)[C@H](Cc2ccc(-c3ccccc3)cc2)NC(=O)[C@H](C(C)C)NC(=O)[C@H](Cc2c[nH]c3ccccc23)NC(=O)[C@H](CC(=O)O)NC(=O)[C@H](Cc2ccc(O)cc2)NC1=O [Example 1289] ({CH2CO}-LYDWV[Bip]R[NMeA][NMeF][Dab]LVSCG-NH2; thioether N-14) here?
Answer: 170 nM

Question: For CC[C@H](C)[C@@H]1NC(=O)[C@H](Cc2ccc(-c3ccccc3)cc2)NC(=O)[C@H](CC(C)C)NC(=O)[C@H](Cc2c[nH]c3ccccc23)NC(=O)[C@H](CC(=O)O)NC(=O)[C@H](Cc2ccc(O)cc2)NC(=O)[C@H](Cc2ccccc2)NC(=O)CSC[C@@H](C(=O)NCC(N)=O)NC(=O)[C@H](CO)NC(=O)[C@H](C(C)C)NC(=O)[C@H](CC(C)C)NC(=O)[C@H](CC(N)=O)NC(=O)CN(C)C(=O)[C@H](C)N(C)C1=O [Example 1133] ({CH2CO}-FYDWL[Bip]I[NMeA][Sar]NLVSCG-NH2; thioether N-14), which IC50 is on record?
Answer: 540 nM

Question: CC(C)[C@@H]1NC(=O)[C@H](Cc2c[nH]c3ccccc23)NC(=O)[C@H](CC(=O)O)NC(=O)[C@H](Cc2ccc(C(=O)O)cc2)NC(=O)[C@H](Cc2ccncc2)NC(=O)CSC[C@@H](C(=O)N[C@@H](C)C(N)=O)NC(=O)[C@H]([C@@H](C)O)NC(=O)[C@H](C(C)C)NC(=O)[C@H](CC2CCCCC2)NC(=O)[C@H](CCN)NC(=O)[C@H](Cc2ccccc2)N(C)C(=O)[C@H](CCCN)NC(=O)[C@H](CCC(=O)O)NC(=O)[C@H](Cc2ccc(-c3ccccc3)cc2)NC1=O [Example 1438] ({CH2CO}-[4Pal][Phe(4-COOH)]DWV[Bip]E[Orn][NMeF][Dab][Cha]VTCA-NH2; thioether N-14) was tested. Which IC50 did it give?
Answer: 70 nM

Question: Which IC50 does the source give for COc1cccc(C[C@@H]2NC(=O)[C@H](CC(=O)O)NC(=O)[C@H](Cc3cccc(C#N)c3)NC(=O)[C@H](Cc3ccncc3)NC(=O)CSC[C@@H](C(=O)N[C@@H](C)C(N)=O)NC(=O)[C@H](CO)NC(=O)[C@H](C(C)C)NC(=O)[C@H](CC(C)C)NC(=O)[C@H](CC(N)=O)NC(=O)[C@H]3CCCN3C(=O)[C@H](C)N(C)C(=O)[C@H](C(C)C)NC(=O)[C@H](Cc3ccc(-c4ccccc4)cc3)NC(=O)[C@H](CC(C)C)NC2=O)c1 [Example 1388] ({CH2CO}-[4Pal][Phe(3-CN)]D[Phe(3-OMe)]L[Bip]V[NMeA][dP]NLVSCA-NH2; thioether N-14) here?
Answer: 20 nM

Question: Which IC50 does the source give for CC(C)C[C@@H]1NC(=O)[C@H](Cc2c[nH]c3ccccc23)NC(=O)[C@H](CC(=O)O)NC(=O)[C@H](Cc2ccc(O)cc2)NC(=O)[C@H](Cc2ccccc2)NC(=O)CSC[C@@H](C(=O)N[C@@H](CCC(=O)O)C(N)=O)NC(=O)[C@H](CO)NC(=O)[C@H](C(C)C)NC(=O)[C@H](CC(C)C)NC(=O)[C@H](CC(N)=O)NC(=O)CN(C)C(=O)[C@H](C)N(C)C(=O)[C@H](C(C)C)NC(=O)[C@H](Cc2ccc(-c3ccccc3)cc2)NC1=O [Example 1251] ({CH2CO}-FYDWL[Bip]V[NMeA][Sar]NLVSCE-NH2; thioether N-14) here?
Answer: 360 nM
